Reference: patent US4902709A, “Novel antihypercholesterolemic compounds” (Merck & Co., Inc., priority 1988, dated 1990)

molecular target: T1, HMG-CoA reductase (Rattus norvegicus, UniProt P51639); assay: intrinsic HMG-CoA reductase inhibition (in vitro procedure detailed in U.S. Pat. No. 4,668,699); type: biochemical; conditions: 2,4 dichloro derivatives of formula I
T1 sequence (P51639 1-887): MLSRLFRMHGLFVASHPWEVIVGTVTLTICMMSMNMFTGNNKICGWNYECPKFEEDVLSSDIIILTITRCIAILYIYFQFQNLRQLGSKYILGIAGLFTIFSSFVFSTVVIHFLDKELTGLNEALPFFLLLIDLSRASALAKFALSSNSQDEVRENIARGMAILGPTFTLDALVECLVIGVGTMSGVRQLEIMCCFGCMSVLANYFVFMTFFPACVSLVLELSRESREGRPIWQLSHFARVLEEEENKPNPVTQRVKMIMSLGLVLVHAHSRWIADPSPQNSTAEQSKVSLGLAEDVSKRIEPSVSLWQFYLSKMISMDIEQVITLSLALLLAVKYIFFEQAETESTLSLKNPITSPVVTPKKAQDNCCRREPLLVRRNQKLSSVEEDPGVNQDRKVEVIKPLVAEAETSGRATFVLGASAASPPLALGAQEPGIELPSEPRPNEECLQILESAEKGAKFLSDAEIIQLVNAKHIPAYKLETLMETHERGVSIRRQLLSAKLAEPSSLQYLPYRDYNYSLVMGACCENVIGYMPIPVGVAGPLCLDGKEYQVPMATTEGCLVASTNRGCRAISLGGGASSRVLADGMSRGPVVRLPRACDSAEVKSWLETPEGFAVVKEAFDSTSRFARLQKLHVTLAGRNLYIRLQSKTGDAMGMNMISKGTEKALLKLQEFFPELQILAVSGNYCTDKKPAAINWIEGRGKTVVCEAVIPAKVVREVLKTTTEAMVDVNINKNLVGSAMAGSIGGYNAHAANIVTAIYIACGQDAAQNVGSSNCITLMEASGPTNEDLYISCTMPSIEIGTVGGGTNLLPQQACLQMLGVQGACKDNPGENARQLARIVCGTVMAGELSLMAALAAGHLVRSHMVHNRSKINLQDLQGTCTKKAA

Row | IC50 [µM] | Compound
1 | 42 | O=C1C[C@@H](c2ccccc2CO)C[C@H](CCc2ccc(Cl)cc2Cl)O1 (relative stereo) [Example 8]
2 | 43.5 | COc1ccc([C@@H]2CC(=O)O[C@@H](CCc3ccc(Cl)cc3Cl)C2)cc1 (relative stereo) [Example 4]
3 | 20.8 | O=C1C[C@@H](c2ccc(O)cc2)C[C@H](CCc2ccc(Cl)cc2Cl)O1 (relative stereo) [Example 5]
4 | 33.6 | O=C1C[C@H](c2ccc(-c3ccccc3)cc2)C[C@@H](CCc2ccc(Cl)cc2Cl)O1 (relative stereo) [Example 2]

Row | Compound | IC50 [µM]
5 | O=C1C[C@@H](c2ccccc2)C[C@H](CCc2ccc(Cl)cc2Cl)O1 (relative stereo) [Example 1, trans-6-[2-(2,4-dichlorophenyl)ethyl]-3,4,5,6-tetrahydro-4-phenyl-2H-pyran-2-one] | 21
